In patent US12440466B2, “Fatty acid derivatives for treating non-alcoholic steatohepatitis” (BASF AS, priority 2017, dated 2025):

Test system: CDAA/high-fat fed mice
Assay: Hepatic lipidomic analysis, CDAA/high-fat diet mouse model
Type: in vivo
Conditions: Compound A 112 mg/kg bw per day or equimolar EPA, orally
Procedure: In Biological Examples 1-7, studies were performed in male C56BL/6J mice (9 weeks old). Mice were fed either choline-sufficient (CS) or choline deficient high-fat diets (31% total calories; “CDAA/high-fat”). The NASH inducing diet was instigated 6 weeks prior to the commencement of treatment in order to design the study as a treatment/reversal set-up rather than prophylaxis.
In Biological Example 7, after 6 weeks of either the CS or CDAA/high-fat diet, mice were administered 112 mg/kg bw per day of Compound A, or an equimolar dose of eicosapentaenoic acid (EPA), delivered orally. Hepatic lipidomic analysis was performed in isolated liver samples from CS (n=9), Compound A (n=9) and EPA (n=8) groups.
To further understand the effects of Compound A on hepatic lipid metabolism, lipidomic analysis of CS- and CDAA/high-fat fed mice (“CD”) was performed in isolated liver tissue.

CC/C=C\C/C=C\C/C=C\C/C=C\C/C=C\CCCCOC(CC)C(=O)O (stereo not shown) [Compound A, 2-((5Z,8Z,11Z,14Z,17Z)-icosa-5,8,11,14,17-pentaenyloxy)butanoic acid]
significantly reduced: hepatic cholesteryl ester | hepatic diglycerides (DG) | hepatic free fatty acids (FFA) | hepatic triglyceride (TG)
